Holding throughout (type): functional
Assay [1] is described as follows: Number of Swiss mice (Mus musculus) alive in a batch of 5 infected with multidrug-resistant Plasmodium yoelii, on day 28 after intramuscular administration of 96 mg/kg/day dose.
Assay [2] deals with Rattus norvegicus. The assay is described as follows: Number of Swiss mice (Mus musculus) alive in a batch of 5 infected with multidrug-resistant Plasmodium yoelii, on day 28 after peroral administration of 96 mg/kg/day dose. The following applies: route oral.
Assay [3] relates to Rattus norvegicus. The assay is described as follows: Number of Swiss mice (Mus musculus) alive in a batch of 5 infected with multidrug-resistant Plasmodium yoelii, on day 28 after peroral administration of 48 mg/kg/day dose. The following applies: route oral.
Assay [4] deals with Rattus norvegicus. The assay is described as follows: Number of Swiss mice (Mus musculus) alive in a batch of 5 infected with multidrug-resistant Plasmodium yoelii, on day 28 after oral administration of 24 mg/kg/day dose.

As for `C=C(c1ccccc1)C1COC2(CCC(O)CC2)OO1` (stereo not drawn), the Activity (in assay [1]; in the assay with Rattus norvegicus [2]) was 0 throughout.
Take `C=C(c1ccc(-c2ccccc2)cc1)C1COC2(CCC(OC(=O)CCC(=O)O)CC2)OO1` (stereo not drawn): the Activity (in assay [1]; with Rattus norvegicus [2]) was 0 throughout.
`C=C(c1ccc(-c2ccccc2)cc1)C1COC2(CCC(O)CC2)OO1` (stereo not drawn): the Activity in assay [1] worked out at 2; with Rattus norvegicus [2], 0.
On the same counts, the results for `C=C(c1ccccc1)C1COC2(CCC(OC(=O)CCC(=O)O)CC2)OO1` (stereo not drawn) are 0 and 0.
On the same counts, the results for `C=C(c1ccccc1)C1COC2(CCC(C)(O)CC2)OO1` (stereo not drawn) are 2 and 0.
On the same counts, the results for `C=C(c1ccccc1)C1COC2(CCC(=C(C)C(=O)OCC)CC2)OO1` (stereo not drawn) are 0 and 0.
Take `C=C(c1ccc(-c2ccccc2)cc1)C1COC2(CCC(=C(C)C(=O)OCC)CC2)OO1` (stereo not drawn): the figures for the Activity (in the assay on Rattus norvegicus [3]; in assay [1]; in the assay with Rattus norvegicus [2]) were 0, 0 and 2, respectively.
On to `C=C(c1ccccc1)C1COC2(CCC(O)(c3ccccc3)CC2)OO1` (stereo not drawn), for which the Activity (in assay [1]; with Rattus norvegicus [2]) was 0 in each case.
On to `C=C(c1ccccc1)C1COC2(CCC(=CC(=O)OCC)CC2)OO1` (stereo not drawn), for which the Activity with Rattus norvegicus [3] was determined as 5; in assay [1] it was 2; with Rattus norvegicus [2], 5; in the assay on Rattus norvegicus [4] it was 0.
Regarding `C=C(c1ccc(-c2ccccc2)cc1)C1COC2(CCC(=CC(=O)OCC)CC2)OO1` (stereo not drawn), the values for the Activity (in the assay on Rattus norvegicus [3]; in assay [1]; in the assay with Rattus norvegicus [2]) were 0, 0 and 5, respectively.
On to `C=C(c1ccccc1)C1COC2(CCC(O)(CC(=O)OCC)CC2)OO1` (stereo in doubt; form 1), for which the Activity (in assay [1]; with Rattus norvegicus [2]) was 0 each time.
As to `C=C(c1ccc(-c2ccccc2)cc1)C1COC2(CCC(O)(CC(=O)OCC)CC2)OO1` (stereo in doubt; form 1), the Activity (in assay [1]; with Rattus norvegicus [2]) was 0 each time.

The record behind these values is ChEMBL document CHEMBL1142847, “New orally active spiro 1,2,4-trioxanes with high antimalarial potency” (2005).
